Assay results published in patent US20160355530A1, “HEPATITIS C INHIBITORS AND USES THEREOF” (AbbVie Inc., priority 2010, published 2016).
Like-named read-outs stand apart in the source and are kept apart here.

Assays:
[1] = system: HCV 1b-BB7 subgenomic replicon; assay: microbe, parasite or virus in culture; assay type: cell-based, HCV genotype 1b; conditions: Hepatitis C virus, stable replicon
[2] = system: HCV NS5B polymerase 1a-H77-C316Y; assay: biochemical; parameters: species or system HCV genotype 1a; conditions: ratio of enzyme IC50s, 1a H77-C316Y / 1a H77
In short: (§1)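 E. coli-expressed NS5B (residues 1-570, His-tagged) transcribed a 2.1 kb HCV 1b negative-strand 3′-end RNA template (5 nM) with 20 μM CTP, 20 μM ATP and 0.284 μM [3H]UTP for 3 h at 30° C. Spermine-precipitated RNA was filter-captured and counted by scintillation; IC50 from nonlinear regression.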

[3] = molecular target: T1, HCV NS5B polymerase 1a-H77 (Hepatitis C virus genotype 1a, UniProt P27958); assay: biochemical; parameters: species or system HCV genotype 1a; conditions: enzyme, strain 1a H77; read-out: HCV Polymerase Strain 1a H77 IC50
T1 construct: six-histidine tag; made in house; host or cells: E. coli
In short: as §1

[4] = molecular target: T2, HCV NS5B polymerase 1a-H77-C316Y (Hepatitis C virus genotype 1a, UniProt P27958, C2736Y); assay: biochemical; parameters: species or system HCV genotype 1a
T2 construct: six-histidine tag; made in house; host or cells: E. coli
In short: as §1

[5] = system: HCV 1b-Con1 subgenomic replicon; assay: Stable replicon cell culture assay (luciferase), 1b-Con1; 5% FBS, optionally 40% human plasma; assay type: cell-based, HCV genotype 1b; conditions: Hepatitis C virus
[6] = strain 1b BB7, 5% FBS + 40% human plasma, read-out: 1b BB7 5% FBS + 40% Human Plasma EC50
[7] = strain 1b BB7, 5% FBS, no human plasma, read-out: 1b BB7 5% FBS EC50
[8] = strain 1b BB7, 5% FBS, read-out: 1b BB7 5% FBS EC50
[9] = strain 1b Con1, 5% FBS + 40% human plasma, read-out: 1b Con1 5% FBS + 40% Human Plasma EC50
[10] = strain 1b Con1, 5% FBS, no human plasma, read-out: 1b Con1 5% FBS EC50
[11] = strain 1b Con1, 5% FBS, read-out: 1b Con1 5% FBS EC50

T2 sequence (P27958 2421-2990 C2736Y): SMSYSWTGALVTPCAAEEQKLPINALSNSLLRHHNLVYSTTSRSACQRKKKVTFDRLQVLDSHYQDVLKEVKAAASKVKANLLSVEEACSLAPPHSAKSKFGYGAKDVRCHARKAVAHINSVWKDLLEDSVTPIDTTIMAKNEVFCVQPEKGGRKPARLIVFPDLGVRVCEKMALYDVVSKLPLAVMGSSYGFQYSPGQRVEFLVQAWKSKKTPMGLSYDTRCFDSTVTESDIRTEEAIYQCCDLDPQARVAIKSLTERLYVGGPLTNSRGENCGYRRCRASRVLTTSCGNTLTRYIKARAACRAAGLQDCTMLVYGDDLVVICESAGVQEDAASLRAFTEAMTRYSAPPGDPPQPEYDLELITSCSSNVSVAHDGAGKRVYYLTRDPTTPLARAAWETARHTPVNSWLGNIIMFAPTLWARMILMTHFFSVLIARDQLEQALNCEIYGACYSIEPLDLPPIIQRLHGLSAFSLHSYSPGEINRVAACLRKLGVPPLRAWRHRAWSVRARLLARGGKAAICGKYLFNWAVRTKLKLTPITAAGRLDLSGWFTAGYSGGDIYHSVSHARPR
T1 sequence (P27958 2421-2990): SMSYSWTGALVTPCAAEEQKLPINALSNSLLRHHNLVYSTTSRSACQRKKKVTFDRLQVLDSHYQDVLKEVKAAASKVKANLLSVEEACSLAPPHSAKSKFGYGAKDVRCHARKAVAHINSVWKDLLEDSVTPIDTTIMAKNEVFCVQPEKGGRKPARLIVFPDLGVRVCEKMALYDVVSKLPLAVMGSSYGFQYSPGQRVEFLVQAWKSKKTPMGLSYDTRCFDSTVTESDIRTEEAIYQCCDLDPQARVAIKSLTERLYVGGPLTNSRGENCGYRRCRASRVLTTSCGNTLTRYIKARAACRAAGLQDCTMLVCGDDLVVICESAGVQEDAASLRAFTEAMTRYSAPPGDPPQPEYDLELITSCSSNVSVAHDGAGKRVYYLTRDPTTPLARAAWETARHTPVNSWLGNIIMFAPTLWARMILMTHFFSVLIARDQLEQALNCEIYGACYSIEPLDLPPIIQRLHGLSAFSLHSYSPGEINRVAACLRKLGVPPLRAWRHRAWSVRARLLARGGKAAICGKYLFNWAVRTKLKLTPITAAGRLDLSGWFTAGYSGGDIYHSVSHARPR

SMILES	EC50 [1, 6]	EC50 [1, 7]	EC50 [1, 8]	C316Y/1a Fold Resistance [2]	IC50 [3]	IC50 [4]	EC50 [5, 9]	EC50 [5, 10]	EC50 [5, 11]
CS(=O)(=O)N(CCO)c1cc2oc(-c3ccc(F)cc3)c(-c3ncc[nH]3)c2cc1C1CC1 [Example 109, N-[5-cyclopropyl-2-(4-fluorophenyl)-3-(1H-imidazol-2-yl)-1-benzofuran-6-yl]-N-(2-hydroxyethyl)methanesulfonamide]	184 nM	12.7 nM	12.7 nM	90 fold	5.9 nM	536 nM	–	–	–
CS(=O)(=O)N(CCO)c1cc2oc(-c3ccc(F)cc3)c(C3=NOCCN3)c2cc1C1CC1 [Example 136, N-[5-cyclopropyl-3-(5,6-dihydro-4H-1,2,4-oxadiazin-3-yl)-2-(4-fluorophenyl)-1-benzofuran-6-yl]-N-(2-hydroxyethyl)methanesulfonamide]	281 nM	35 nM	35 nM	40 fold	6.4 nM	256 nM	–	–	–
CCCC/C=C/c1ccc(-c2oc3cc(N(CCCCS(C)(=O)=O)S(C)(=O)=O)c(C4CC4)cc3c2-c2ncc[nH]2)cc1 [Example 168, N-[5-cyclopropyl-2-{4-[(1E)-hex-1-en-1-yl]phenyl}-3-(1H-imidazol-2-yl)-1-benzofuran-6-yl]-N-[4-(methylsulfonyl)butyl]methanesulfonamide]	–	–	–	2 fold	4.9 nM	8.5 nM	24.3 nM	3.4 nM	3.4 nM
CS(=O)(=O)CCCCN(c1cc2oc(-c3ccc(Nc4ccccc4)cc3)c(-c3ncc[nH]3)c2cc1C1CC1)S(C)(=O)=O [Example 169, N-[2-(4-anilinophenyl)-5-cyclopropyl-3-(1H-imidazol-2-yl)-1-benzofuran-6-yl]-N-[4-(methylsulfonyl)butyl]methanesulfonamide]	–	–	–	3 fold	6 nM	19.8 nM	34.4 nM	5 nM	4.5 nM
